Values of other authors as cited in patent US11291673B2, “Topical doxycycline hydrogel with improved long-term stability” (Nanopharmaceutics, Inc., priority 2019, dated 2022).

Assays:
mastitis = conditions: homogeneous suspension applied to the udder of a cow
[1] = compared to aqueous suspensions containing amphoteric dioxytetracycline
[2] = test system: experimental dry eye (EDE) model

Compound: calcium dioxytetracycline
- alleviation of mastitis (mastitis): rapid and complete alleviation of mastitis
- stability of suspension [1]: superior stability

Compound: C[C@H]1c2cccc(O)c2C(=O)C2=C(O)[C@]3(O)C(=O)C(C(N)=O)=C(O)[C@@H](N(C)C)[C@@H]3[C@@H](O)[C@@H]21 [Doxycycline monohydrate]
- aqueous solubility (pHs above 6): < 800 µg/mL

Compound: C[C@H]1c2cccc(O)c2C(O)=C2C(=O)[C@]3(O)C(O)=C(C(N)=O)C(=O)[C@H](N(C)C)[C@@H]3[C@@H](O)[C@@H]21 [4-epidoxycycline]
- anti-inflammatory and anti-proteolytic effects [2]: lack of anti-inflammatory and anti-proteolytic effects

Compound: C[C@H]1c2cccc(O)c2C(=O)C2=C(O)[C@]3(O)C(=O)C(C(N)=O)=C(O)[C@@H](N(C)C)[C@@H]3[C@@H](O)[C@@H]21 [Doxycycline]
- solubility (neutral pH): less than 10 mg/ml

Compound: C[C@@H]1c2cccc(O)c2C(O)=C2C(=O)[C@]3(O)C(O)=C(C(N)=O)C(=O)[C@@H](N(C)C)[C@@H]3[C@@H](O)[C@@H]21 [6-epidoxycycline]
- anti-inflammatory and anti-proteolytic effects [2]: lack of anti-inflammatory and anti-proteolytic effects
